For six compounds, Activity, IC50 and logP results are on record in ChEMBL document CHEMBL1268995, “The structure and antimalarial activity of dispiro-1,2,4,5-tetraoxanes derived from (+)-dihydrocarvone” (Bioorg Med Chem Lett, 2010).

Converted amounts (≈) assume the structure as drawn.

In data set [1] the test system is Plasmodium berghei. Put plainly: Antimalarial activity against Plasmodium berghei infected in NMRI mice (Mus musculus) assessed as reduction in parasitaemia at 100 mg/kg, perorally administered 1 day post-infection measured 3 day post-infection. In kind it is functional. On the set-up: scale not given: the % may be the effect or the level left. The following applies: route oral.

The test system of data set [2] is Plasmodium falciparum. Put plainly: Antimalarial activity against chloroquine-sensitive Plasmodium falciparum NF54. In kind it is functional, organism-based.
In data set [3] the test system is Plasmodium falciparum. Put plainly: Antimalarial activity against chloroquine-resistant Plasmodium falciparum K1. Format: functional, organism-based.
A short description of data set [4]: Partition coefficient, log P of the compound. In kind it is physicochemical. The following applies: octanol/water.

For `C[C@@H]1CCCCC12OOC1(CCCC[C@@H]1C)OO2` (stereo partly specified) [WR-148999], the Activity in data set [1] is recorded as 99.7%.
Regarding `C/C(=N\O)[C@@H]1CC[C@@H](C)C2(C1)OOC1(C[C@H](/C(C)=N/O)CC[C@H]1C)OO2` (stereo partly specified), the IC50 (in general, the concentration at which inhibition is half-maximal) in data set [2] is 18 ng/mL (≈ 0.0486 µM); in data set [3], 30 ng/mL (≈ 0.081 µM). For the same compound, the Activity in data set [1] was below 40%.
The like results for `CC(=O)[C@@H]1CC[C@@H](C)C2(C1)OOC1(C[C@H](C(C)=O)CC[C@H]1C)OO2` (stereo partly specified) were, in that order, 2.1 ng/mL (≈ 0.00617 µM), 2.1 ng/mL (≈ 0.00617 µM) and 63%.
The like results for `CC(N)[C@@H]1CC[C@@H](C)C2(C1)OOC1(C[C@H](C(C)N)CC[C@H]1C)OO2` (stereo partly specified) were, in that order, 82 ng/mL (≈ 0.239 µM), 54 ng/mL (≈ 0.158 µM) and 99.1%.
The like results for `C=C(C)[C@@H]1CC[C@@H](C)C2(C1)OOC1(C[C@H](C(=C)C)CC[C@H]1C)OO2` (stereo partly specified) were, in that order, 6.6 ng/mL (≈ 0.0196 µM), 6.9 ng/mL (≈ 0.0205 µM) and 99.9%.
For the compound `C[C@@H]1CC[C@H]2[C@@H](C)C(=O)O[C@@H]3O[C@@]4(C)CC[C@@H]1[C@]32OO4` [ARTEMISININ], the IC50 in data set [2] was 3.4 ng/mL (≈ 0.012 µM). In addition, the logP – broadly, the decadic logarithm of the partition coefficient of the neutral form, usually between octanol and water – in data set [4] is 2.2. In addition, the Activity in data set [1] was 98%.
